Some test systems named below: DU-145 prostate; HCT-116 colon; RPMI-8226 leukemia; SK-MEL-2 melanoma; SK-MEL-28 melanoma; SK-MEL-5 melanoma; SN12C renal; SNB-75 CNS; U251 CNS; UO-31 renal; BT-549 breast.
Test in all cases: NCI anticancer screen, dose series, 48 h

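Where inhibition never reached the appropriate level, the endpoint shown equals the highest concentration tested. Otherwise, values were interpolated linearly from a five-concentration, 48-hour dose response in 96-well plates. GI50 = concentration required for 50% inhibition of growth. TGI: total growth inhibition.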

As to `O=C(c1ccccc1)N1C(=S)N(c2ccccn2)C(=Nc2ccccc2)C1=Nc1ccccc1`, the TGI is above 100 µM in the assay with DU-145 prostate; above 77.3 µM with HCT-116 colon; 31.1 µM with RPMI-8226 leukemia; 34.6 µM in the assay on SK-MEL-2 melanoma; above 100 µM with SK-MEL-28 melanoma; above 50 µM with SK-MEL-5 melanoma. Also, the TGI with SN12C renal was above 100 µM; in the assay with SNB-75 CNS it was above 100 µM; in the assay with U251 CNS, 39.6 µM; in the assay with UO-31 renal, 27.1 µM.
On to `COc1ccc(-c2oc3c(OC)c(OC)cc(O)c3c(=O)c2OC)cc1`, for which the TGI in the assay with BT-549 breast, with DU-145 prostate, with HCT-116 colon, with SK-MEL-2 melanoma, in the assay on SK-MEL-28 melanoma and with SK-MEL-5 melanoma was above 100 µM in each case. The TGI in the assay on SN12C renal, in the assay on U251 CNS and in the assay on UO-31 renal was above 100 µM in each case.
Take `COc1ccccc1C1c2cc3c(cc2OC(N2CCOCC2)C1C)OCO3` (stereo not drawn): the TGI with DU-145 prostate turned out to be 51.4 µM; in the assay on HCT-116 colon, 26.2 µM; in the assay on RPMI-8226 leukemia it was 45.7 µM; with SK-MEL-2 melanoma, 37.3 µM; with SK-MEL-28 melanoma, 32.6 µM; with SK-MEL-5 melanoma it was 31.2 µM. In addition, the TGI with SN12C renal stood at 38.1 µM; in the assay with UO-31 renal, 42.8 µM.
Consider `O=c1cc(-c2ccccc2)[nH]c2nccn12`, for which the TGI in the assay with DU-145 prostate, in the assay with HCT-116 colon, in the assay with RPMI-8226 leukemia, in the assay on SK-MEL-2 melanoma, in the assay with SK-MEL-28 melanoma and in the assay with SK-MEL-5 melanoma was above 10 µM throughout. Further, the TGI in the assay on SN12C renal, in the assay on SNB-75 CNS, with U251 CNS and in the assay on UO-31 renal was above 10 µM in each case.
Take `CC1=CC2c3cccc4[nH]cc(c34)CC2N(C)C1` (stereo not drawn): the TGI in the assay on HCT-116 colon, in the assay with RPMI-8226 leukemia, in the assay on SK-MEL-2 melanoma, in the assay on SK-MEL-28 melanoma, in the assay on SK-MEL-5 melanoma and with SN12C renal was above 100 µM each time. The TGI with SNB-75 CNS was above 82.4 µM; in the assay on U251 CNS it was above 100 µM; with UO-31 renal, above 76.9 µM.
With `CC(C)NC(=O)OCc1c2c(n(C)c1COC(=O)NC(C)C)-c1ccccc1CC2`, the TGI in the assay with HCT-116 colon turned out to be 23.2 µM; in the assay with RPMI-8226 leukemia it was 17.3 µM; with SK-MEL-2 melanoma it was 29.5 µM; in the assay with SK-MEL-28 melanoma it was 26.2 µM; in the assay with SK-MEL-5 melanoma it was 29.1 µM; with SN12C renal, 27.4 µM. In addition, the TGI with SNB-75 CNS came out at 29.4 µM; with U251 CNS it was 22.5 µM; in the assay on UO-31 renal, 32.4 µM.
Consider `CCOc1cc2c(c(OCC)c1O)CC[C@@H]1[C@@H]2CC[C@]2(C)[C@@H](O)CC[C@@H]12`, for which the GI50 with DU-145 prostate is 3.32 µM; with HCT-116 colon, 0.801 µM; with SN12C renal, 4.84 µM. The TGI with DU-145 prostate came out at 37.4 µM; with HCT-116 colon, 18.1 µM; in the assay on RPMI-8226 leukemia, 31.1 µM; in the assay with SK-MEL-2 melanoma, 83.7 µM; with SK-MEL-5 melanoma it was 21.5 µM; in the assay with SN12C renal, 21.9 µM. The TGI in the assay on SNB-75 CNS is 10.6 µM; in the assay on UO-31 renal, 79.3 µM.
Take `CCn1cnnc1-c1nsc2ccccc12`: the TGI in the assay on HCT-116 colon, in the assay with RPMI-8226 leukemia, in the assay with SK-MEL-2 melanoma, with SK-MEL-28 melanoma, in the assay on SK-MEL-5 melanoma and with SN12C renal was above 100 µM each time. Besides, the TGI was 41.8 µM in the assay with SNB-75 CNS, above 100 µM with U251 CNS and above 100 µM in the assay on UO-31 renal.
For the compound `Cc1cc(S(=O)(=O)/N=C(\[N-]S(=O)(=O)c2cc(Cl)sc2Cl)[n+]2ccc(N(C)C)cc2)c(S)cc1Cl`, the TGI is above 100 µM with DU-145 prostate; 55.5 µM in the assay with HCT-116 colon; above 100 µM with RPMI-8226 leukemia; above 100 µM in the assay with SK-MEL-2 melanoma; above 100 µM in the assay with SK-MEL-28 melanoma; above 100 µM in the assay on SK-MEL-5 melanoma. The TGI was above 100 µM in the assay on U251 CNS and 56 µM with UO-31 renal.
As to `COc1cccc(/C=C2\S/C(=N/Nc3nc(-c4ccc([N+](=O)[O-])cc4)cs3)NC2=O)c1O`, the TGI in the assay on BT-549 breast is 20 µM; in the assay on DU-145 prostate it was 68.1 µM; in the assay on HCT-116 colon, 27.8 µM; with RPMI-8226 leukemia it was 35.2 µM; in the assay with SK-MEL-28 melanoma it was 39.5 µM; in the assay with SK-MEL-5 melanoma it was 25.5 µM. Further, the figures for the TGI with SN12C renal, in the assay with U251 CNS and in the assay on UO-31 renal were 50.5 µM, 7.66 µM and 28.9 µM, respectively.
As for `COC(=O)CCC(NC(=O)OC(C)(C)C)C(=O)NC(Cc1ccc(NC(=O)CCCC(C)=O)cc1)C(=O)NC(CCC(=O)OC)C(=O)OC` (stereo not drawn), the TGI in the assay on DU-145 prostate, in the assay on HCT-116 colon, in the assay with RPMI-8226 leukemia, in the assay on SK-MEL-2 melanoma, in the assay on SK-MEL-28 melanoma and with SK-MEL-5 melanoma was above 100 µM each time. Moreover, the TGI in the assay on SN12C renal, in the assay on SNB-75 CNS and in the assay with UO-31 renal was above 100 µM in each case.
As to `CC(=O)Nc1cccc(N=NN(C)C)c1`, the TGI with HCT-116 colon, in the assay on RPMI-8226 leukemia, in the assay on SK-MEL-2 melanoma, with SK-MEL-28 melanoma, in the assay with SK-MEL-5 melanoma and in the assay with SN12C renal was above 100 µM throughout. Besides, the TGI with SNB-75 CNS, in the assay on U251 CNS and in the assay with UO-31 renal was above 100 µM throughout.
On to `N#Cc1c(-c2ccccc2)c(CN2CCCCC2)c(=O)n2c1[nH]c1ccccc12`, for which the TGI in the assay with BT-549 breast was above 100 µM; in the assay with HCT-116 colon, above 100 µM; in the assay with SK-MEL-2 melanoma, above 100 µM; with SK-MEL-28 melanoma it was above 100 µM; in the assay on SK-MEL-5 melanoma it was 34.1 µM; with SN12C renal, above 100 µM. Moreover, the TGI in the assay with SNB-75 CNS, in the assay on U251 CNS and with UO-31 renal was above 100 µM each time.
For the compound `CCC1NC(N=Nc2ccc([N+](=O)[O-])cc2)(P(=O)(OC(C)C)OC(C)C)OC1=O` (stereo not drawn), the TGI in the assay on HCT-116 colon, with RPMI-8226 leukemia, with SK-MEL-2 melanoma, in the assay with SK-MEL-28 melanoma, in the assay with SK-MEL-5 melanoma and in the assay with SN12C renal was above 100 µM throughout. The figures for the TGI in the assay on SNB-75 CNS, with U251 CNS and with UO-31 renal were 97.4 µM, above 100 µM and above 100 µM, respectively.

These data come from PubChem BioAssay (NCI).
